Five compounds from US10538517B2, “Quinolone derivatives as FGFR inhibitors” (Principia Biopharma, Inc., priority 2015, dated 2020) can be followed below.

The subject of assay [1] is SNU-16 human gastric cancer cell line xenograft. In words: Human gastric tumor (HGS) xenograft model. The class given is in vivo, mice. The following applies: day 42 after inoculation, 20/kg of compound (vehicle group 645). The protocol: Human Gastric Tumor Model:
SNU-16 human gastric cancer cell line can be used to generate a xenograft model to determine the effects of a FGFR inhibitor of the present disclosure (test compound) as a single agent treatment to target FGFR-dependent tumor growth. SNU-16 cells are grown in tissue culture as described in Example 2 above. For tumor inoculation, approximately 1×10^7 cells are mixed with Matrigel (1:1) and are implanted into the rear flank of immuno compromised Balb/c nu/nu mice. Tumor-bearing mice are monitored twice weekly in two dimensions using a caliper and the volume expressed in mm^3 using the formula: V=0.5 a×b^2 where a and b are the long and short diameters of the tumor respectively. Once tumor volume reaches a mean average of 175 mm^3 mice are randomized into 3 groups (n=8-10 per group) receiving either vehicle control (0.5% methyl cellulose w/w) or the test compound by oral gavage. Dosing continues for 5-21 days with tumor volumes measured daily or every other day. It is expected that tumor growth will be inhibited in animals treated with the test compound. […] Inhibition of FGFR pathway can be assessed by detection of FGFR auto phosphorylation activity. […] Tumor samples are collected at 8 h or 12 h post the last dosing and FGFR auto phosphorylation activity is determined. […]
For orientation: A xenograft is tissue or cells of one species grown in another, often human tumour cells in immunodeficient mice.

Assay [2] concerns SNU-16 cells. The assay is described as follows: Inhibition of FGFR2-dependent cell growth (Cell-titer Glo). The format is cell-based. Conditions: Homo sapiens, SNU-16, 72 h, 72 hrs incubation, cell viability, read-out: SNU16 IC50 values. The protocol:
The cell-based effects of FGFR inhibitors were determined by measuring inhibition of FGFR-dependent cell line growth. The cell lines SNU-16 was used for these assays. […] Percent inhibition of cell growth was calculated as a percentage of untreated cell viability. The percent inhibition was plotted as a function of log compound concentration. The IC50 was then calculated for each compound using Prism software from GraphPad.

pIC50: −log10 of the molar value.

In assay [1], `C=CC(=O)N1CCN(CCCn2c(=O)c(-c3c(Cl)c(OC)cc(OC)c3Cl)cc3cnc(NC)nc32)CC1` [8-(3-(4-acryloylpiperazin-1-yl)propyl)-6-(2,6-dichloro-3,5-dimethoxyphenyl)-2-(methylamino)pyrido[2,3-d]pyrimidin-7(8H)-one] gave a tumor size of 55 mm3.

The term pIC50 denotes −log10 of the IC50, conventionally taken in molar units. Consider `CCOC(C)(C)C=C(C#N)C(=O)Nc1ccc(CCn2c(=O)c(-c3cc(OC)cc(OC)c3Cl)cc3cnc(NC)nc32)cc1` [Cpd 27 (table 2), N-(4-(2-(6-(2-chloro-3,5-dimethoxyphenyl)-2-(methylamino)-7-oxopyrido[2,3-d]pyrimidin-8(7H)-yl)ethyl)phenyl)-2-cyano-4-ethoxy-4-methylpent-2-enamide], for which, in assay [2], the pIC50 is 8.38.

Consider `CNc1ncc2cc(-c3cc(OC)cc(OC)c3Cl)c(=O)n(CCc3csc(NC(=O)C(C#N)=CC(C)(C)C)n3)c2n1` [Cpd 67 (table 2), N-(4-(2-(6-(2-chloro-3,5-dimethoxyphenyl)-2-(methylamino)-7-oxopyrido[2,3-d]pyrimidin-8(7H)-yl)ethyl)thiazol-2-yl)-2-cyano-4,4-dimethylpent-2-enamide], for which, in assay [2], the pIC50 is 6.03.

`CNc1ncc2cc(-c3cc(OC)cc(OC)c3Cl)c(=O)n(CCc3ccc(NC(=O)C(C#N)=CC(C)(C)N(C)C4COC4)cc3)c2n1` [Cpd 29 (table 2), N-(4-(2-(6-(2-chloro-3,5-dimethoxyphenyl)-2-(methylamino)-7-oxopyrido[2,3-d]pyrimidin-8(7H)-yl)ethyl)phenyl)-2-cyano-4-methyl-4-(methyl(oxetan-3-yl)amino)pent-2-enamide]: in assay [2], the pIC50 is 8.85.

With `CNc1ncc2cc(-c3cc(OC)cc(OC)c3Cl)c(=O)n(CCc3cccc(N(C)C(=O)C(C#N)=CC(C)(C)N)c3)c2n1` [Cpd 26 (table 2), 4-amino-N-(3-(2-(6-(2-chloro-3,5-dimethoxyphenyl)-2-(methylamino)-7-oxopyrido[2,3-d]pyrimidin-8(7H)-yl)ethyl)phenyl)-2-cyano-N,4-dimethylpent-2-enamide], the pIC50 in assay [2] was 7.25.
